# ± gives the expanded uncertainty stated by the source.
# Assay: refractive index (Na D-line) (dimensionless); xn = mol fraction of the nth substance listed
# Details: 298.15 K; 101.3 kPa; Liquid; Standard Abbe refractometry; x1 = 0.5
row,refractive index,SMILES
1,1.4239 ± 0.0011,O=C1CCCC1 [cyclopentanone] + CCCCCCO
2,1.4332 ± 0.0011,O=C1CCCC1 [cyclopentanone] + CCCCCCCCCCO

# Same assay, conditions: 298.15 K; 101.3 kPa; Liquid; Standard Abbe refractometry; x1 = 0.6
row,refractive index,SMILES
1,1.4274 ± 0.001,O=C1CCCC1 [cyclopentanone] + C1CCCCC1
2,1.4302 ± 0.0011,O=C1CCCC1 [cyclopentanone] + CCCCCCCCO
3,1.4212 ± 0.0011,O=C1CCCC1 [cyclopentanone] + CCCCO
4,1.4117 ± 0.0011,O=C1CCCC1 [cyclopentanone] + CCO
5,1.4258 ± 0.0011,O=C1CCCC1 [cyclopentanone] + CCCCCCO
6,1.4332 ± 0.0011,O=C1CCCC1 [cyclopentanone] + CCCCCCCCCCO

# Same assay, conditions: 298.15 K; 101.3 kPa; Liquid; Standard Abbe refractometry; x1 = 0.7
row,refractive index,SMILES
1,1.4289 ± 0.0011,O=C1CCCC1 [cyclopentanone] + C1CCCCC1
2,1.4311 ± 0.0011,O=C1CCCC1 [cyclopentanone] + CCCCCCCCO
3,1.4248 ± 0.0011,O=C1CCCC1 [cyclopentanone] + CCCCO
4,1.4182 ± 0.0011,O=C1CCCC1 [cyclopentanone] + CCO
5,1.4279 ± 0.0011,O=C1CCCC1 [cyclopentanone] + CCCCCCO
6,1.4333 ± 0.0011,O=C1CCCC1 [cyclopentanone] + CCCCCCCCCCO

# Same assay, conditions: 298.15 K; 101.3 kPa; Liquid; Standard Abbe refractometry; x1 = 0.8
row,refractive index,SMILES
1,1.4306 ± 0.0011,O=C1CCCC1 [cyclopentanone] + C1CCCCC1
2,1.4321 ± 0.0011,O=C1CCCC1 [cyclopentanone] + CCCCCCCCO
3,1.4282 ± 0.0011,O=C1CCCC1 [cyclopentanone] + CCCCO
4,1.4242 ± 0.0011,O=C1CCCC1 [cyclopentanone] + CCO
5,1.4301 ± 0.0011,O=C1CCCC1 [cyclopentanone] + CCCCCCO
6,1.4336 ± 0.0011,O=C1CCCC1 [cyclopentanone] + CCCCCCCCCCO

# Same assay, conditions: 298.15 K; 101.3 kPa; Liquid; Standard Abbe refractometry; x1 = 0.9
row,refractive index,SMILES
1,1.4325 ± 0.0011,O=C1CCCC1 [cyclopentanone] + C1CCCCC1
2,1.4333 ± 0.0011,O=C1CCCC1 [cyclopentanone] + CCCCCCCCO
3,1.4315 ± 0.0011,O=C1CCCC1 [cyclopentanone] + CCCCO
4,1.4296 ± 0.0011,O=C1CCCC1 [cyclopentanone] + CCO
5,1.4324 ± 0.0011,O=C1CCCC1 [cyclopentanone] + CCCCCCO
6,1.4341 ± 0.0011,O=C1CCCC1 [cyclopentanone] + CCCCCCCCCCO

# Same assay, conditions: 298.15 K; 101.3 kPa; Liquid; Standard Abbe refractometry; x1 = 1
row,refractive index,SMILES
1,1.4347 ± 0.0011,O=C1CCCC1 [cyclopentanone] + C1CCCCC1
2,1.4347 ± 0.0011,O=C1CCCC1 [cyclopentanone] + CCCCCCCCO
3,1.4347 ± 0.0011,O=C1CCCC1 [cyclopentanone] + CCCCO
4,1.4347 ± 0.0011,O=C1CCCC1 [cyclopentanone] + CCO
5,1.4347 ± 0.0011,O=C1CCCC1 [cyclopentanone] + CCCCCCO
6,1.4347 ± 0.0011,O=C1CCCC1 [cyclopentanone] + CCCCCCCCCCO

# Same assay, conditions: 298.15 K; 101.3 kPa; Liquid; Standard Abbe refractometry; x2 = 0
row,refractive index,SMILES
1,1.4235 ± 0.001,C1CCCCC1 [cyclohexane] + O=C1CCCC1
2,1.4352 ± 0.0011,CCCCCCCCCCO [decan-1-ol] + O=C1CCCC1
3,1.3594 ± 0.001,CCO [ethanol] + O=C1CCCC1

# More lines, now with the values behind:
row,SMILES,refractive index
1,CCCCO [butan-1-ol] + O=C1CCCC1,1.3971 ± 0.001
2,CCCCCCCCO [octan-1-ol] + O=C1CCCC1,1.4276 ± 0.0011
3,CCCCCCO [hexan-1-ol] + O=C1CCCC1,1.4161 ± 0.0011

# Assay: relative permittivity at various frequencies (dimensionless); xn = mol fraction of the nth substance listed
# Details: 298.15 K; 101.3 kPa; Liquid; Frequency=0.01 MHz; Coaxial cylinder capacitor; x1 = 0.03
row,relative permittivity,SMILES
1,2.25 ± 0.3,O=C1CCCC1 [cyclopentanone] + C1CCCCC1

# Same assay, conditions: 298.15 K; 101.3 kPa; Liquid; Frequency=0.01 MHz; Coaxial cylinder capacitor; x1 = 0.05
row,relative permittivity,SMILES
1,2.39 ± 0.31,O=C1CCCC1 [cyclopentanone] + C1CCCCC1

# Same assay, conditions: 298.15 K; 101.3 kPa; Liquid; Frequency=0.01 MHz; Coaxial cylinder capacitor; x1 = 0.1
row,relative permittivity,SMILES
1,2.78 ± 0.32,O=C1CCCC1 [cyclopentanone] + C1CCCCC1
2,9.63 ± 0.54,O=C1CCCC1 [cyclopentanone] + CCCCCCCCO
3,16.31 ± 0.69,O=C1CCCC1 [cyclopentanone] + CCCCO
4,22.42 ± 0.8,O=C1CCCC1 [cyclopentanone] + CCO
5,12.44 ± 0.61,O=C1CCCC1 [cyclopentanone] + CCCCCCO
6,7.75 ± 0.49,O=C1CCCC1 [cyclopentanone] + CCCCCCCCCCO

# Same assay, conditions: 298.15 K; 101.3 kPa; Liquid; Frequency=0.01 MHz; Coaxial cylinder capacitor; x1 = 0.15
row,relative permittivity,SMILES
1,3.19 ± 0.34,O=C1CCCC1 [cyclopentanone] + C1CCCCC1

# Same assay, conditions: 298.15 K; 101.3 kPa; Liquid; Frequency=0.01 MHz; Coaxial cylinder capacitor; x1 = 0.2
row,relative permittivity,SMILES
1,3.61 ± 0.36,O=C1CCCC1 [cyclopentanone] + C1CCCCC1
2,9.51 ± 0.54,O=C1CCCC1 [cyclopentanone] + CCCCCCCCO
3,15.37 ± 0.67,O=C1CCCC1 [cyclopentanone] + CCCCO
4,20.69 ± 0.77,O=C1CCCC1 [cyclopentanone] + CCO
5,12 ± 0.6,O=C1CCCC1 [cyclopentanone] + CCCCCCO
6,7.84 ± 0.49,O=C1CCCC1 [cyclopentanone] + CCCCCCCCCCO

# From the NIST ThermoML archive (doi:10.1021/acs.jced.8b00217)
